Test system: NLRP3 inflammasome
Assay: IL-1β Secretion Assay (NLRP3-dependent IL-1β secretion in PMA-differentiated THP-1 cells, nigericin activation, HTRF)
Format: cell-based
Conditions: Homo sapiens, THP-1, THP-1 cells, 100 ng/mL PMA 24 h, compound 20 h, 2.5 μM Nigericin 3 h; read-out: IC50 IL-1β Inhibition
Method in brief: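 IL-1β release, quantified by HTRF after nigericin activation of the NLRP3 inflammasome, was the read-out. A logistic fit of percent inhibition gave IC50.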

Structure (SMILES)	IC50 [nM]
CN1CCC[C@@H](Nc2nnc(-c3ccc(C(F)(F)F)cc3OC(F)F)c3cnccc23)C1 [Compound I-122]	1 to 10
CCOc1cc(O)c(-c2nnc(N[C@@H]3C[C@@H](F)CN(C)C3)n3cccc23)c(F)c1 [Compound I-631]	10 to 100
Oc1cc(C2CC2)cc(F)c1-c1nnc(N[C@@H]2CCC[C@H](O)C2)n2cccc12 [Compound I-424]	1 to 10
CN1CCC[C@@H](Nc2nnc(-c3ccc(C(F)(F)F)cc3O)c3cnnn23)C1 [Compound I-461, (R)-2-(7-((1-Methylpiperidin-3-yl)amino)-[1,2,3]triazolo[1,5-d][1,2,4]triazin-4-yl)-5-(trifluoromethyl)phenol]	1 to 10
CN1CCC[C@@H](Cc2nnc(-c3ccc(C(F)(F)F)cc3O)c3ccccc23)C1 [Compound I-96, (S)-2-(4-((1-methylpiperidin-3-yl)methyl)phthalazin-1-yl)-5-(trifluoromethyl)phenol]	> 300
FC(F)Oc1cc(C(F)(F)F)ccc1-c1nnc(N[C@@H]2CCCN(CC(F)(F)F)C2)n2cccc12 [Compound I-494]	100 to 300
C[C@]1(O)C[C@@H](Nc2nnc(-c3ccc(OC(F)F)cc3OC(F)F)c3cccn23)C1 [Compound I-573]	10 to 100
Oc1cc(Cl)ccc1-c1nnc(N[C@@H]2CCOC2)n2cncc12 [Compound I-561]	1 to 10
CNS(=O)(=O)c1cc(C(F)(F)F)ccc1-c1nnc(N[C@@H]2CCCN(C)C2)c2cnccc12 [Compound I-169]	10 to 100
CN1CCC[C@@H](Nc2nnc(-c3ccccc3OC(F)F)c3c2CCC3)C1 [Compound I-245]	1 to 10
COc1ccc(-c2nnc(N[C@@H]3CCCN(C)C3)n3nc(C4CC4)cc23)c(O)c1 [Compound I-347]	10 to 100
Cc1ccc(-c2nnc(N[C@@H]3CCCN(C)C3)c3cnccc23)c(O)c1 [Compound I-71, 5-Methyl-2-[4-[[(3R)-1-methyl-3-piperidyl]amino]pyrido[3,4-d]pyridazin-1-yl]phenol]	< 1
Oc1cc(Br)ccc1-c1nnc(N[C@@H]2CCCOC2)n2nccc12 [Compound I-547]	10 to 100
CCOc1cc(O)c(-c2nnc(N[C@@H]3CCCN(C)C3)n3cccc23)c(F)c1 [Compound I-630]	1 to 10
C#Cc1ccc(-c2nnc(N[C@@H]3CCCN(C)C3)c3ccccc23)c(O)c1 [Compound I-226, (R)-5-ethynyl-2-(4-((1-methylpiperidin-3-yl)amino)phthalazin-1-yl)phenol]	< 1
OCCN1CCCC[C@@H](Nc2nnc(-c3ccc(C(F)(F)F)cc3O)c3ccncc23)C1 [Compound I-317]	1 to 10
C[C@]1(O)C[C@@H](Nc2nnc(-c3ccc(OC(F)(F)F)cc3OC(F)F)c3cccn23)C1 [Compound I-522]	10 to 100
CN1CCC[C@@H](Nc2nnc(-c3ccc(Br)cc3O)c3ccnn23)C1 [Compound I-452]	1 to 10
CN1C[C@H](F)C[C@@H](Nc2nnc(-c3c(O)cc(C4CC4)cc3F)c3cccn23)C1 [Compound I-445, 5-Cyclopropyl-3-fluoro-2-[4-[[(3R,5R)-5-fluoro-1-methyl-3-piperidyl]amino]-pyrrolo[1,2-d][1,2,4]triazin-1-yl]phenol]	1 to 10
C[C@]1(O)C[C@@H](Nc2nnc(-c3ccc(C(F)(F)F)cc3O)c3cncn23)C1 [Compound I-527]	1 to 10
CO[C@H]1CCC[C@@H](Nc2nnc(-c3ccc(C(F)(F)F)cc3OC(F)F)c3cccn23)C1 [Compound I-362]	10 to 100
CCN1CCC[C@@H](Nc2nnc(-c3ccc(C(F)(F)F)cc3OC(F)F)c3cc(C)nn23)C1 [Compound I-556]	1 to 10
Oc1cc(C(F)(F)F)ccc1-c1nnc(N[C@@H]2CCCNC2)n2cccc12 [Compound I-352]	1 to 10

Structure (SMILES)	IC50 [nM]
C[C@]1(O)C[C@@H](Nc2nnc(-c3ccc(C(F)(F)F)cc3OC(F)F)c3c(F)ccn23)C1 [Compound I-525]	10 to 100
OCCN1CCC[C@@H](Nc2nnc(-c3c(O)cc(C(F)(F)F)cc3F)c3cccn23)C1 [Compound I-415]	1 to 10
CN1CCC[C@@H](Nc2nnc(-c3ccc(C(F)(F)F)cc3O)c3c(F)ccn23)C1 [Compound I-393]	< 1
COC(C)(C)CNc1nnc(-c2ccc(C(F)(F)F)cc2OC(F)F)c2cccn12 [Compound I-568]	1 to 10
CN1CCC[C@@H](Nc2nnc(-c3ccc(Cl)cc3O)c3cccnc23)C1 [Compound I-67]	< 1
CC(C)Oc1cc(C(F)(F)F)ccc1-c1nnc(N[C@@H]2CCCN(C)C2)c2cnccc12 [Compound I-291]	1 to 10
CN1CCC[C@@H](Nc2nnc(-c3ccc(-n4nccn4)cc3O)c3ccccc23)C1 [Compound I-10, (R)-2-(4-((1-methylpiperidin-3-yl)amino)phthalazin-1-yl)-5-(2H-1,2,3-triazol-2-yl)phenol]	1 to 10
CN1C[C@H](F)C[C@@H](Nc2nnc(-c3ccc(C(F)(F)F)cc3OC(F)F)c3cccn23)C1 [Compound I-413, 1-[2-(Difluoromethoxy)-4-(trifluoromethyl)phenyl]-N-[(3R,5R)-5-fluoro-1-methyl-3-piperidyl]pyrrolo[1,2-d][1,2,4]triazin-4-amine]	1 to 10
Cc1cccc2c(N[C@@H]3CCCN(C)C3)nnc(-c3ccc(C(F)(F)F)cc3O)c12 [Compound I-8]	1 to 10
CN1CCC[C@@H](Nc2nnc(-c3ccc(C(F)(F)F)cc3S(C)(=O)=O)c3ccncc23)C1 [Compound I-192]	10 to 100
COc1ccc(-c2nnc(N[C@@H]3CCCN(C)C3)c3cnccc23)c(O)c1 [Compound I-175]	< 1
CN1CCC[C@@H](Nc2nnc(-c3ccc(C4CC4)cc3C(F)F)c3cccn23)C1 [Compound I-446, 1-[4-Cyclopropyl-2-(difluoromethyl)phenyl]-N-[(3R)-1-methyl-3-piperidyl]pyrrolo-[1,2-d][1,2,4]triazin-4-amine]	1 to 10
OCCN1CCC[C@@H](Nc2nnc(-c3ccc(OC(F)(F)F)cc3OC(F)F)c3cccn23)C1 [Compound I-520]	1 to 10
Cc1cc(O)c(-c2nnc(N[C@@H]3CCCN(C)C3)n3cccc23)c(F)c1 [Compound I-342, 3-Fluoro-5-methyl-2-[4-[[(3R)-1-methyl-3-piperidyl]amino]pyrrolo[1,2-d][1,2,4]triazin-1-yl]phenol]	1 to 10
OCCN1CCC[C@@H](Nc2nnc(-c3ccc(C(F)(F)F)cc3C(F)(F)F)c3cccn23)C1 [Compound I-491]	1 to 10
COc1cc(C#N)ccc1-c1nnc(N[C@@H]2CCCN(C)C2)n2cccc12 [Compound I-407]	10 to 100
CCN1CCC[C@@H](Nc2nnc(-c3ccc(Cl)cc3C(F)F)c3cccn23)C1 [Compound I-505]	10 to 100
Oc1cc(C(F)(F)F)cc(F)c1-c1nnc(N[C@@H]2CCCOC2)n2cccc12 [Compound I-395]	10 to 100
CCN1C[C@H](F)C[C@@H](Nc2nnc(-c3c(O)cc(C)cc3F)c3cccn23)C1 [Compound I-571]	< 1
CN1CCC[C@@H](Nc2nnc(-c3ccc(C4CC4)cc3C(F)F)c3ccncc23)C1 [Compound I-248]	1 to 10
Cc1cc2c(-c3c(C)cc(C(F)(F)F)cc3O)nnc(N[C@@H]3CCCN(C)C3)n2n1 [Compound I-560]	1 to 10
CC(CO)N1CCC[C@H](Nc2nnc(-c3ccc(Br)cc3O)c3cccn23)C1 (stereo partly drawn) [Compound I-552]	1 to 10

— patent US20240262806A1, “INHIBITORS OF NLRP3” (PTC THERAPEUTICS, INC., priority 2021, published 2024)
